Laboratory results from publication PMC5889867, “Inhibition of Protein Aggregation by Several Antioxidants” (Oxidative Medicine and Cellular Longevity, 2018).
Where “and” joins values, the source holds several entries; their conditions need not be identical. Equal entries are not always repeated.

biological target: T1, human stefin B (stB wt) (Homo sapiens, UniProt P04080, C3S); test: intrinsic Tyr fluorescence quenching, modified Stern-Volmer; format: binding; conditions: 34 uM protein, 25 C, excitation 277 nm
T1 construct: gene CSTB; Cys3 replaced by Ser
T1 sequence (P04080 1-98 C3S): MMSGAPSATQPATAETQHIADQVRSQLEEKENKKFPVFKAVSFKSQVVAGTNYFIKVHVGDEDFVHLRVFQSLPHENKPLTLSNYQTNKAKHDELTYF

Molecule	Ka
CC(=O)N[C@@H](CS)C(=O)O [NAC, (2R)-2-acetamido-3-sulfanyl propanoic acid]	each compound also acts as a quencher of tyrosine fluorescence
COc1cc(/C=C/C(=O)CC(=O)/C=C/c2ccc(O)c(OC)c2)ccc1O [curcumin, (1E,6E)-1,7-bis(4-hydroxy-3-methoxyphenyl)hepta-1,6-diene-3,5-dione]	binding constants show that curcumin binds more tightly than do other antioxidants studied here
O=c1c(O)c(-c2ccc(O)c(O)c2)oc2cc(O)cc(O)c12 [quercetin, 2-(3,4-dihydroxyphenyl)-3,5,7-trihydroxy-4H-chromen-4-one]	each compound also acts as a quencher of tyrosine fluorescence
Oc1ccc(/C=C/c2cc(O)cc(O)c2)cc1 [resveratrol, 3,5,40-trihydroxystilbene]	each compound also acts as a quencher of tyrosine fluorescence
O=C1O[C@H]([C@@H](O)CO)C(O)=C1O [vitamin C, (2R)-2-[(1S)-1,2-dihydroxyethyl]-3,4-dihydroxy-2H-furan-5-one]	each compound also acts as a quencher of tyrosine fluorescence

biological target: human stefin B (stB wt), recombinant, Cys 3 replaced with Ser (human) (UniProt P04080); test: cross-linking; stB wt fibrillation mixture (34 uM protein, 0.015 M acetate buffer, 0.15 M NaCl, pH 4.8, 10% v/v TFE, room temperature) aged 24 hours, with or without antioxidants (NAC, vit C and others); cross-linked with 50-fold molar excess of BS3, then SDS-PAGE; conditions: not given

Molecule	stoichiometry N
human stefin B (stB wt), recombinant, Cys 3 replaced with Ser (from UniProt P04080 8-98) (natural protein)	2 and > 4
